Experimental data: paper PMC10048662, “Whole-Cell Biocatalytic Production of Acetoin with an aldC-Overexpressing Lactococcus lactis Using Soybean as Substrate” (Foods, 2023)

Target: T1, ALDC (α-acetolactate decarboxylase, aldC) (Lactiplantibacillus plantarum, UniProt F9UPY7)
T1 construct: gene aldB; expressed in Lactococcus lactis NZ9000 from pNZ8048, crude lysate supernatant; ALDC described as dimer
Test: acetoin formation, creatine/α-naphthol colour reaction at […] nm
Format: biochemical
Settings: crude lysate supernatant of nisin-induced cells; 30 °C, 20 min; uninduced cells as comparison

T1 sequence (F9UPY7 entry or part of it): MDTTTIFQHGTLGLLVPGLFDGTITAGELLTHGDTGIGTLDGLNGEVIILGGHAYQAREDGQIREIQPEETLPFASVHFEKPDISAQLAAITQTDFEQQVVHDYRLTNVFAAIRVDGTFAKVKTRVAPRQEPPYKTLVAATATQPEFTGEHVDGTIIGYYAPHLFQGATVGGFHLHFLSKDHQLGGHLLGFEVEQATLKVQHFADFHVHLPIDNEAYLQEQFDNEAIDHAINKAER

SMILES: CC(=O)C(C)(O)C(=O)O (racemic) [α-acetolactate]
- acetoin formation, creatine/α-naphthol colour reaction at 522 nm: the expressed ALDC can efficiently convert α-acetolactate to acetoin
